From patent US4436751A, “Nitrobenzyl monates antibacterial compounds” (Beecham Group Limited, priority 1980, dated 1984)
Values after ≈ are worked out from the molar mass of the structure shown. Like-named read-outs stand apart in the source and are kept apart here.

Columns and labels:
Type in all cases: cell-based
M. suipneumoniae HR(2) = experiment: Anti-mycoplasmal MIC in vitro, Friis broth agarose (Table 1); details: Mesomycoplasma hyopneumoniae, 144 h
M. suipneumoniae Str. 11 = experiment: as above; details: Mesomycoplasma hyopneumoniae, STR.11, 144 h
[1] = test system: M. suipneumoniae J2206/183b; experiment: as above; details: Mesomycoplasma hyopneumoniae, J2206/183B, 144 h
M. suipneumoniae MS 16 = experiment: as above; details: Mesomycoplasma hyopneumoniae, MS16, 144 h
[2] = test system: M. suipneumoniae PW/C/210; experiment: as above; details: Mesomycoplasma hyopneumoniae, 144 h
M. suipneumoniae LABER = experiment: as above; details: Mesomycoplasma hyopneumoniae, 144 h
M. suipneumoniae TAM 6N = experiment: as above; details: Mesomycoplasma hyopneumoniae, TAM6N, 144 h
[3] = test system: M. suipneumoniae ATCC 25095; experiment: as above; details: Mesomycoplasma hyopneumoniae, ATCC25095, 144 h
[4] = test system: M. suipneumoniae NCTC 10110; experiment: as above; details: Mesomycoplasma hyopneumoniae, NCTC10110, 144 h
M. hyorhinis ATCC 25021 = experiment: as above; details: Mesomycoplasma hyorhinis, ATCC25021, 144 h
M. bovis RCTC 10131 = experiment: microbe, parasite or virus in culture; details: RCTC10131, 144 h
M. gallisepticum S6 = experiment: Anti-mycoplasmal MIC in vitro, Friis broth agarose (Table 1); details: Mycoplasmoides gallisepticum, S6, 144 h
[5] = test system: Corynebacterium pyogenes CY1; experiment: Veterinary bacteria MIC, Diagnostic Sensitivity Test Agar (Table 2); details: Trueperella pyogenes, CY1, 18 h
Procedure: (§1) The values were determined using a two fold serial dilutions in Diagnostic Sensitivity Test Agar with an inoculum of 10^4 organisms and incubation for 18 hours at 37° C.

E. Coli E1 = experiment: as above; details: Escherichia coli, 18 h
Procedure: as §1

[6] = test system: Erysipelothrix rhusiopathiae NCTC 8163; experiment: as above; details: Erysipelothrix rhusiopathiae, NCTC8163, 18 h
Procedure: as §1

Past. multocida PA2 = experiment: as above; details: Pasteurella multocida, PA2, 18 h
Procedure: as §1

S. dublin S7 = experiment: as above; details: Salmonella enterica, S7, 18 h
Procedure: as §1

S. typhimurium S18 = experiment: as above; details: Salmonella enterica, TYPHIMURIUM, 18 h
Procedure: as §1

Staph. aureus 152 = experiment: as above
Procedure: as §1

Staph. aureus B4 = experiment: as above; details: Staphylococcus aureus
Procedure: as §1

Staph. aureus Oxford = experiment: as above; details: Staphylococcus aureus
Procedure: as §1

Strep. agalactiae SPA1 = experiment: as above; details: Streptococcus agalactiae
Procedure: as §1

Strep. dylgalactiae SPD1 = experiment: as above
Procedure: as §1

[7] = test system: Strep. suis (group D) SPS11; experiment: as above; details: Streptococcus suis, 18 h
Procedure: as §1

[8] = test system: Neisseria catarrhalis 1502; experiment: Human bacteria MIC, nutrient agar with chocolated horse blood (Table 3); details: Neisseria, 1502, 18 h
Procedure: (§2) The values were determined by serial dilutions in nutrient agar with 5% chocolated horse blood after incubations for 18 hours at 37° C.

Strep. 2733-B = experiment: as above
Procedure: as §2

Strep. 641848-C = experiment: as above
Procedure: as §2

E. coli ESS = experiment: as above; details: Escherichia coli, 18 h
Procedure: as §2

| Structure (SMILES) | MIC (M. suipneumoniae HR(2)) [µg/mL] | MIC (M. suipneumoniae Str. 11) [µg/mL] | MIC [1] [µg/mL] | MIC (M. suipneumoniae MS 16) [µg/mL] | MIC [2] [µg/mL] | MIC (M. suipneumoniae LABER) [µg/mL] | MIC (M. suipneumoniae TAM 6N) [µg/mL] | MIC [3] [µg/mL] | MIC [4] [µg/mL] | MIC (M. hyorhinis ATCC 25021) [µg/mL] | MIC (M. bovis RCTC 10131) [µg/mL] | MIC (M. gallisepticum S6) [µg/mL] | MIC [5] [µg/mL] | MIC (E. Coli E1) [µg/mL] | MIC [6] [µg/mL] | MIC (Past. multocida PA2) [µg/mL] | MIC (S. dublin S7) [µg/mL] | MIC (S. typhimurium S18) [µg/mL] | MIC [7] [µg/mL] | MIC [8] [µg/mL] | other results |
| --- | --- | --- | --- | --- | --- | --- | --- | --- | --- | --- | --- | --- | --- | --- | --- | --- | --- | --- | --- | --- | --- |
| C/C(=C\C(=O)OCc1ccc([N+](=O)[O-])cc1Cl)CC1OCC(CC2OC2C(C)C(C)O)C(O)C1O (stereo not shown) [Example 11, 2-chloro-4-nitrobenzyl monate A] | 2.5 (≈ 4.86 µM) | 1 (≈ 1.95 µM) | 1 (≈ 1.95 µM) | 1 (≈ 1.95 µM) | 1 (≈ 1.95 µM) | 1 (≈ 1.95 µM) | 2.5 (≈ 4.86 µM) | 1 (≈ 1.95 µM) | 1 (≈ 1.95 µM) | 0.5 (≈ 0.973 µM) | 0.025 (≈ 0.0486 µM) | 2.5 (≈ 4.86 µM) | > 80 | 80 (≈ 156 µM) | 5 (≈ 9.73 µM) | 0.156 (≈ 0.304 µM) | 80 (≈ 156 µM) | 80 (≈ 156 µM) | 0.625 (≈ 1.22 µM) | 0.5 (≈ 0.973 µM) | MIC (Staph. aureus 152; Staphylococcus aureus, Staph. aureus 152, DST Agar, 10^4 organisms, 18 hours 37° C., read-out: MIC): 0.07 µg/mL (≈ 0.136 µM); MIC (Staph. aureus B4; Staph. aureus B4, DST Agar, 10^4 organisms, 18 hours 37° C., read-out: MIC): 0.156 µg/mL (≈ 0.304 µM); MIC (Staph. aureus Oxford; Staph. aureus Oxford, DST Agar, 10^4 organisms, 18 hours 37° C., read-out: MIC): 0.07 µg/mL (≈ 0.136 µM); MIC (Strep. agalactiae SPA1; Strep. agalactiae SPA1, DST Agar, 10^4 organisms, 18 hours 37° C., read-out: MIC): 0.156 µg/mL (≈ 0.304 µM); MIC (Strep. dylgalactiae SPD1; Strep. dylgalactiae SPD1, DST Agar, 10^4 organisms, 18 hours 37° C., read-out: MIC): 0.156 µg/mL (≈ 0.304 µM); MIC (Strep. 2733-B; Strep. 2733-B, nutrient agar 5% chocolated horse blood, 18 hours 37° C., read-out: MIC): 1 µg/mL (≈ 1.95 µM); MIC (Strep. 641848-C; Strep. 641848-C, nutrient agar 5% chocolated horse blood, 18 hours 37° C., read-out: MIC): 1 µg/mL (≈ 1.95 µM) |
| C/C(=C\C(=O)OCc1cc([N+](=O)[O-])cc([N+](=O)[O-])c1)CC1OCC(CC2OC2C(C)C(C)O)C(O)C1O (stereo not shown) [Example 6, 3,5-dinitrobenzyl monate A] | 0.05 (≈ 0.0953 µM) | 0.025 (≈ 0.0477 µM) | 0.05 (≈ 0.0953 µM) | 0.025 (≈ 0.0477 µM) | 0.025 (≈ 0.0477 µM) | 0.025 (≈ 0.0477 µM) | 0.05 (≈ 0.0953 µM) | 0.05 (≈ 0.0953 µM) | 0.05 (≈ 0.0953 µM) | 0.025 (≈ 0.0477 µM) | ≤ 0.01 | 5 (≈ 9.53 µM) | > 80 | 80 (≈ 153 µM) | 20 (≈ 38.1 µM) | 0.625 (≈ 1.19 µM) | > 80 | 80 (≈ 153 µM) | 20 (≈ 38.1 µM) | < 0.025 | MIC (Staph. aureus 152; Staphylococcus aureus, 152, 18 h): 0.312 µg/mL (≈ 0.595 µM); MIC (Staph. aureus B4; B4, 18 h): 0.312 µg/mL (≈ 0.595 µM); MIC (Staph. aureus Oxford; 18 h): 0.312 µg/mL (≈ 0.595 µM); MIC (Strep. agalactiae SPA1; SPA1, 18 h): 0.312 µg/mL (≈ 0.595 µM); MIC (Strep. dylgalactiae SPD1; 18 h): 0.312 µg/mL (≈ 0.595 µM); MIC (E. coli ESS): 1 µg/mL (≈ 1.91 µM); MIC (Strep. 2733-B; 18 h): 0.5 µg/mL (≈ 0.953 µM); MIC (Strep. 641848-C; 18 h): 0.5 µg/mL (≈ 0.953 µM) |
